Measurements reported in PMC5654082 (Malaria Journal, 2017).
Counter-ions that a name gives are not always drawn.

How the values were obtained:
MATE2-K = MATE2-K (Homo sapiens, UniProt Q86VL8); test: MATE2-K-mediated uptake in transduced HEK293 cells; type: cell-based; design: host or cells: HEK293, baculovirus transduction (CMV promoter), transient; settings: 100 µM, 5 min
Procedure: HEK293 cells were modified to transiently express (a combination of) human OCT1, OCT2, MATE1, MATE2-K, or eYFP. Briefly, cDNA of the respective genes was cloned downstream of a CMV promoter into a baculovirus, of which passage three was used to transduce HEK293 cells. These cells were seeded in poly-D-lysine coated 24- or 96-wells plates and grown in a 37 °C incubator at 5% CO2. Growth was initiated at ~ 25% confluency using 375 or 125 μL cell and complete medium (DMEM + GlutaMAX™-I supplemented with 10% fetal bovine serum) suspension per well, respectively. […]
(§1) Import and export of PG and cycloguanil (CG) was assessed by single and double transduced HEK293 cells. […] Following the same procedure as for the cellular import assay described above, the import of 100 µM PG and CG was measured after 5 min incubation and data was plotted as mean pmol/mg/min ± SEM. […] Significant reduction in uptake (i.e. export by MATEs) was determined using ln transformation and a one-way repeated measures ANOVA with Dunnet’s post test.
Anti-malarial concentration in the cell lysates was quantified using an LC–MS/MS system consisting of a UPLC, a binary solvent manager, a vacuum degasser and an autosampler, coupled to a Xevo TQ-S micro triple quadrupole mass spectrometer. […] The peak area of the most abundant product ion was used for quantification.

human OCT2 = target: T1, human OCT2 (Homo sapiens, UniProt O15244); test: OCT2-mediated cellular import in transduced HEK293 cells (LC-MS/MS); type: cell-based
T1 construct: host or cells: HEK293, baculovirus transduction (CMV promoter), transient
T1 sequence (O15244 1-555): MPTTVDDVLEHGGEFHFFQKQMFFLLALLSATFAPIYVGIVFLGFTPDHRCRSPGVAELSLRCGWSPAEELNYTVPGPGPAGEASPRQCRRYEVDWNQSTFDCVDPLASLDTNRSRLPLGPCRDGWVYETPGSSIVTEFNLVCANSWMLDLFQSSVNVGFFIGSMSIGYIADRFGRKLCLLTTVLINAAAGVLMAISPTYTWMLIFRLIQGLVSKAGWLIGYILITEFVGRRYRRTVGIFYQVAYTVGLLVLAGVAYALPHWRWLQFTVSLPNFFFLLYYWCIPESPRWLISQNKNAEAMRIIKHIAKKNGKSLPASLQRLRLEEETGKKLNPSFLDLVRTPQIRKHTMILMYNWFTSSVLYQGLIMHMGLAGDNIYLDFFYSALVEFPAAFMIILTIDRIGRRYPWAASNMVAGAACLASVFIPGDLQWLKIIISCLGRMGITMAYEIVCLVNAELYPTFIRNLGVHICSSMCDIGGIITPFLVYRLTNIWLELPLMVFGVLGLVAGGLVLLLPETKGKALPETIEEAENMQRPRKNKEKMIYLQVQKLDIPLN
Procedure: HEK293 cells were modified to transiently express (a combination of) human OCT1, OCT2, MATE1, MATE2-K, or eYFP. Briefly, cDNA of the respective genes was cloned downstream of a CMV promoter into a baculovirus, of which passage three was used to transduce HEK293 cells. These cells were seeded in poly-D-lysine coated 24- or 96-wells plates and grown in a 37 °C incubator at 5% CO2. Growth was initiated at ~ 25% confluency using 375 or 125 μL cell and complete medium (DMEM + GlutaMAX™-I supplemented with 10% fetal bovine serum) suspension per well, respectively. After 24 h, cells were transduced with 30 µL virus (10 µL virus + 20 µL complete medium in case of 96-wells plates) or 2 × 15 µL virus for cells that required simultaneous expression of two transporters. Finally, 195 µL sodium butyrate (45 µL for 96-wells plates) was added to a final concentration of 2 mM to enhance protein expression.
HEK293 cells were seeded in 24-wells poly-D-lysine coated plates and transduced the subsequent day with OCT1 or OCT2 as described above. Three days following transduction, OCT1- or OCT2-mediated uptake of ten anti-malarials (AMO, ART, ATO, CQ, DHA, LUM, MQ, PQ, PG, and QN) was performed. […] Following a second wash with 400 µL ice-cold HBSS-HEPES buffer, cells were lysed with 200 µL 50% (v/v) MeOH and 0.1% (v/v) formic acid (HCOOH) in water and samples were sent for quantification by mass spectrometry analysis (see “LC–MS/MS quantification of anti-malarials” section). […]
The affinity (KM) and maximum transport rate (Vmax) for OCT1 and OCT2 of PG were determined by analysing concentration-dependent uptake data from three independent experiments.
as §1, with “test. […]” for “test.”

Sequence of MATE2-K (Q86VL8 1-566 isoform Q86VL8-3): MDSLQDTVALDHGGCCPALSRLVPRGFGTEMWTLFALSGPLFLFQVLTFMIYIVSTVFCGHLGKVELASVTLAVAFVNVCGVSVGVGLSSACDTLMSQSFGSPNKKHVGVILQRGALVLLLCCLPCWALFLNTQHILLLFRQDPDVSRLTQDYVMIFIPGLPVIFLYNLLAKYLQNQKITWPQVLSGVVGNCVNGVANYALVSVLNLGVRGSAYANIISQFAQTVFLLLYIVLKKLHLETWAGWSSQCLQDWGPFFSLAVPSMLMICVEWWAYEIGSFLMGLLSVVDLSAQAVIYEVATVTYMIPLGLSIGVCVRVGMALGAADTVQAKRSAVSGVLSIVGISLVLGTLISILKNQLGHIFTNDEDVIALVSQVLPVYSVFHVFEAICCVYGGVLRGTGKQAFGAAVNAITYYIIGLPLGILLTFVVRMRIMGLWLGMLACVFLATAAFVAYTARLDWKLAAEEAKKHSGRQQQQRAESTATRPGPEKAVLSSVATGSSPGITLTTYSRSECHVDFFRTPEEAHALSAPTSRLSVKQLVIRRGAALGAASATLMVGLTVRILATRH

Uptake by OCT2 (human OCT2; 100 µM, 5 min) | SMILES | Uptake by MATE2-K (MATE2-K) | Uptake by OCT2, percentage of mock-transduced control (human OCT2; 10 µM, 15 min, 37 °C)
 | [H]/N=C(\N/C(=N/[H])Nc1ccc(Cl)cc1)NC(C)C [Proguanil, proguanil hydrochloride] | 360 ± 90 pmol/mg/min | 207 ± 17%
118 ± 18 pmol/mg/min | CC1(C)N=C(N)N=C(N)N1c1ccc(Cl)cc1 [Cycloguanil] | 56 ± 15 pmol/mg/min | 
